Common to all, as to assay type: cell-based
One experiment has as its target T1, human TLR9 (Homo sapiens, UniProt Q9NR96).
T1 construct: host or cells: HEK-Blue cells (HEK293-derived reporter line)
T1 sequence (Q9NR96 26-1032): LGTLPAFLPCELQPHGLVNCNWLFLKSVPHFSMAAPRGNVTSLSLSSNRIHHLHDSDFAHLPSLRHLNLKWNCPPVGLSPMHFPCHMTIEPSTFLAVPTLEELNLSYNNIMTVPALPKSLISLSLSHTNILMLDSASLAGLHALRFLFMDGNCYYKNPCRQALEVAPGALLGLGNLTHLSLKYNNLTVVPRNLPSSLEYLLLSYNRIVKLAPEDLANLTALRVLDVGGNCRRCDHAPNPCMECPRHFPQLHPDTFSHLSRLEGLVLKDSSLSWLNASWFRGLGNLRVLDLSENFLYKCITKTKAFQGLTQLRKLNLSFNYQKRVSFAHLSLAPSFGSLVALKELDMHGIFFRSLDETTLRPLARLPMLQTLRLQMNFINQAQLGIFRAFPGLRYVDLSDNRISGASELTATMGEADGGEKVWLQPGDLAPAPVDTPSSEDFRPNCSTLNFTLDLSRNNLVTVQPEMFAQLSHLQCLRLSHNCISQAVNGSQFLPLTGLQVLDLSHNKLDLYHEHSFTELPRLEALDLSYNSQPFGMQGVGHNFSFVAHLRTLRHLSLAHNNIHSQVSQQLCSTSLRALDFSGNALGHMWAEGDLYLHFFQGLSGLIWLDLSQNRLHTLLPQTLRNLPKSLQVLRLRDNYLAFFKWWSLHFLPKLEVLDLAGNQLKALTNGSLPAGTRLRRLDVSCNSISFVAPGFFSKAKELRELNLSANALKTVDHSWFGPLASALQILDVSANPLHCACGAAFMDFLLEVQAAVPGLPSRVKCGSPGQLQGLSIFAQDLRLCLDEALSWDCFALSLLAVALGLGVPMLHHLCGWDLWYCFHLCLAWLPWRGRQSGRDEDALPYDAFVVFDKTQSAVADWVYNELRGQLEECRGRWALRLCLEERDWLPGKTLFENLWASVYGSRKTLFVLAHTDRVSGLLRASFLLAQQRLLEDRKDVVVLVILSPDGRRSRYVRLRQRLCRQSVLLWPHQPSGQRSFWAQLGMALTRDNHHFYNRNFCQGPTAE
Nature of the experiment: TLR9 inhibition reporter assay (HEK-Blue cells, secreted embryonic alkaline phosphatase reporter). In outline: (§1)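 Cells seeded at 15000 (TLR7), 20,000 (TLR8) or 25,000 (TLR9) per well; compound 0.05 nM–50 μM, 30 min RT pre-incubation. Agonists: gardiquimod 7.5 μM, R848 15.9 μM, ODN2006 5 nM respectively. 22 h, 37 °C; SEAP via HEK-Blue Detection; % inhibition vs agonist+DMSO and known-inhibitor wells.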
Background: A reporter such as luciferase makes a cellular process visible.

For a further experiment, the target named is T2, human TLR8 (Homo sapiens, UniProt Q9NR97).
T2 construct: host or cells: HEK-Blue cells (HEK293-derived reporter line)
T2 sequence (Q9NR97 27-1041): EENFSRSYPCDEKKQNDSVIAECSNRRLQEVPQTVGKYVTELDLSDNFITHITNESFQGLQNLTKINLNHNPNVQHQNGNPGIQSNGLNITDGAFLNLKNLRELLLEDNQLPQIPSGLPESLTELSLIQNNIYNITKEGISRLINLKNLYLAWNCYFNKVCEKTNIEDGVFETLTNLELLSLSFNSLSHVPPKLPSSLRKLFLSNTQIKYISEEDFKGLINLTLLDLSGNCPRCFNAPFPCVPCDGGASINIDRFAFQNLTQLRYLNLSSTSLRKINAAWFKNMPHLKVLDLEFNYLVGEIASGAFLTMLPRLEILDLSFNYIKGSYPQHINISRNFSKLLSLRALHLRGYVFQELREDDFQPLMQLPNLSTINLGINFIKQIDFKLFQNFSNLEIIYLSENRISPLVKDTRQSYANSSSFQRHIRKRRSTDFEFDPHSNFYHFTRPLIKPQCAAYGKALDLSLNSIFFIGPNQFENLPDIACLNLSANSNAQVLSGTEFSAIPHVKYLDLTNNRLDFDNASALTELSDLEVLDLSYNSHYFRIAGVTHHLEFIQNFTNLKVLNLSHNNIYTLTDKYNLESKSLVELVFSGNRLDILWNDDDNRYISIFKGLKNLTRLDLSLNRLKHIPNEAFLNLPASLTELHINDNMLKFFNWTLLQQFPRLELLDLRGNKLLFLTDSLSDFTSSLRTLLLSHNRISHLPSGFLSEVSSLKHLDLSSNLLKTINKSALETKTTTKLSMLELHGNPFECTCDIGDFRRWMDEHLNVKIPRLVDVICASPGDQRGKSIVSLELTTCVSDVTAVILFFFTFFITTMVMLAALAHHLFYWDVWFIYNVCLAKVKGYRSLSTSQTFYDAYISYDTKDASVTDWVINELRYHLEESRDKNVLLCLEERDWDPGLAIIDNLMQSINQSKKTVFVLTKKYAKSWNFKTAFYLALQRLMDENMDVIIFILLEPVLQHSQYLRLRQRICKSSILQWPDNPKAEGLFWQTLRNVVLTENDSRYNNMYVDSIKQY
Nature of the experiment: TLR8 inhibition reporter assay (HEK-Blue cells, secreted embryonic alkaline phosphatase reporter). Conditions: HEK-Blue cells overexpressing human TLR8, stimulated with R848 15.9 μM; read-out: TLR 8 IC50. In outline:
as §1

The target in another experiment is T3, human TLR7 (Homo sapiens, UniProt Q9NYK1).
T3 construct: host or cells: HEK-Blue cells (HEK293-derived reporter line)
T3 sequence (Q9NYK1 27-1049): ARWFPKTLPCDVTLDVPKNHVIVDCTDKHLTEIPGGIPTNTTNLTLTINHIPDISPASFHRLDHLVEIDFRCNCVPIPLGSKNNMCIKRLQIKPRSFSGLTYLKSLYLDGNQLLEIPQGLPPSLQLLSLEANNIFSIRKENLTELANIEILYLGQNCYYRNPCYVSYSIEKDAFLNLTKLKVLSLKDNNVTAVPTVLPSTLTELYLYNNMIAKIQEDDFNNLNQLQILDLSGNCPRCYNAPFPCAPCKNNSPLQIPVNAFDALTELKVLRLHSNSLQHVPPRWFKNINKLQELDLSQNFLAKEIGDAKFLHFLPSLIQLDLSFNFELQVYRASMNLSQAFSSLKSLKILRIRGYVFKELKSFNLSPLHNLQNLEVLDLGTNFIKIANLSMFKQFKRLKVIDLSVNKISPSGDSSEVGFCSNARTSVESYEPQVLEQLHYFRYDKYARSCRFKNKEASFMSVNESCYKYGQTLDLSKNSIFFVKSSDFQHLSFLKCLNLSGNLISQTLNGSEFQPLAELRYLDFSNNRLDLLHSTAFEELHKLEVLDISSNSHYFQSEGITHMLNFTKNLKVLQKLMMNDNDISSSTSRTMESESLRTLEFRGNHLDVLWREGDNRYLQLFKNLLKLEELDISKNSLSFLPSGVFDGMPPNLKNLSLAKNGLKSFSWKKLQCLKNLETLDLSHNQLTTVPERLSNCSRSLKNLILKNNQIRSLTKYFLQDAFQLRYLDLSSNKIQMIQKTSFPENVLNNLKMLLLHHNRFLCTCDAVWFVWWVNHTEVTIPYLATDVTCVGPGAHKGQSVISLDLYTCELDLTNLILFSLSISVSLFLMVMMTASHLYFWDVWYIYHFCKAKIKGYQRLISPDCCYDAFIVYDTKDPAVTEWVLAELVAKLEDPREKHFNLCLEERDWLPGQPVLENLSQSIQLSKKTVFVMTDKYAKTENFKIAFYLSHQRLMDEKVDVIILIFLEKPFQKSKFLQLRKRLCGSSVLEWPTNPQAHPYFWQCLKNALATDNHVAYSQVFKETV
Nature of the experiment: TLR7 inhibition reporter assay (HEK-Blue cells, secreted embryonic alkaline phosphatase reporter). As to conditions: HEK-Blue cells overexpressing human TLR7, stimulated with gardiquimod 7.5 μM; read-out: TLR 7 IC50. In outline:
as §1

[1] abbreviates: HEK-Blue cells overexpressing human TLR9, stimulated with ODN2006 5 nM, read-out: TLR 9 IC50.

The results in this text go back to patent US12492188B2, “1H-benzo[D]imidazole derivatives as TLR9 inhibitors for the treatment of fibrosis” (BRISTOL-MYERS SQUIBB COMPANY, priority 2020, dated 2025).

pIC50: −log10 of the molar value. Where two headings read alike, the source gives them in different places.

A word on the pIC50: it is the IC50 on a negative log10 scale, so that one unit is a factor of ten.

For `CS(=O)(=O)c1ccc(-c2nc3ccc(C4CCN(C5CCN(C6CCC6)CC5)CC4)c(F)c3[nH]2)cc1` [Example 180, 6-(1′-cyclobutyl-[1,4′-bipiperidin]-4-yl)-7-fluoro-2-(4-(methylsulfonyl)phenyl)-1H-benzo[d]imidazole], the values for the pIC50 against human TLR9, at human TLR8 and on human TLR7 were 7.60, < 4.30 and < 4.30, respectively.

With `CS(=O)(=O)c1ccc(-c2nc3ccc(C4CCN(C5CCN(C6COC6)CC5)CC4)c(F)c3[nH]2)cc1` [Example 181, 7-fluoro-2-(4-(methylsulfonyl)phenyl)-6-(1′-(oxetan-3-yl)-[1,4′-bipiperidin]-4-yl)-1H-benzo[d]imidazole], the pIC50 at human TLR9 is 6.19; at human TLR9 (setting [1]) it was 6.19; at human TLR8, < 4.30; at human TLR7, < 4.30.

As to `CS(=O)(=O)c1ccc(-c2nc3ccc(C4CCN(C5CCN(C6CCOCC6)CC5)CC4)c(F)c3[nH]2)cc1` [Example 182, 7-fluoro-2-(4-(methylsulfonyl)phenyl)-6-(1′-(tetrahydro-2H-pyran-4-yl)-[1,4′-bipiperidin]-4-yl)-1H-benzo[d]imidazole], the pIC50 on human TLR9 was 6.49; on human TLR9 (setting [1]), 6.50; at human TLR8 it was < 4.30; at human TLR7, < 4.30.

Turning to `CS(=O)(=O)c1ccc(-c2nc3ccc(C4CCN(C5CCN(CC6COC6)CC5)CC4)c(F)c3[nH]2)cc1` [Example 183, 7-fluoro-2-(4-(methylsulfonyl)phenyl)-6-(1′-(oxetan-3-ylmethyl)-[1,4′-bipiperidin]-4-yl)-1H-benzo[d]imidazole], the pIC50 is 6.96 at human TLR9, 6.96 at human TLR9 (setting [1]), < 4.30 on human TLR8 and < 4.30 on human TLR7.

As to `CC(C)CN1CCC(N2CCC(c3ccc4c(nc(-c5ccc(S(C)(=O)=O)cc5)n4C)c3F)CC2)CC1` [Example 184, 4-fluoro-5-(1′-isobutyl-[1,4′-bipiperidin]-4-yl)-1-methyl-2-(4-(methylsulfonyl)phenyl)-1H-benzo[d]imidazole], the pIC50 against human TLR9 is 6.07; on human TLR9 (setting [1]), 6.07; on human TLR8, < 4.30; at human TLR7, < 4.30.

On to `Cn1c(-c2ccc(S(C)(=O)=O)cc2)nc2c(F)c(C3CCN(C4CCN(C5CC5)CC4)CC3)ccc21` [Example 185, 5-(1′-cyclopropyl-[1,4′-bipiperidin]-4-yl)-4-fluoro-1-methyl-2-(4-(methylsulfonyl)phenyl)-1H-benzo[d]imidazole], for which the negative logarithm of the IC50 (pIC50) was 6.15 against human TLR9, 6.16 at human TLR9 (setting [1]), < 4.30 on human TLR8 and < 4.30 on human TLR7.

For `Cn1c(-c2ccc(S(C)(=O)=O)cc2)nc2c(F)c(C3CCN(C4CCN(C5COC5)CC4)CC3)ccc21` [Example 186, 4-fluoro-1-methyl-2-(4-(methylsulfonyl)phenyl)-5-(1′-(oxetan-3-yl)-[1,4′-bipiperidin]-4-yl)-1H-benzo[d]imidazole], the pIC50 was 5.14 at human TLR9, 5.14 at human TLR9 (setting [1]), < 4.30 at human TLR8 and < 4.30 on human TLR7.

Consider `Cn1c(-c2ccc(S(C)(=O)=O)cc2)nc2c(F)c(C3CCN(C4CCN(C5CCOCC5)CC4)CC3)ccc21` [Example 187, 4-fluoro-1-methyl-2-(4-(methylsulfonyl)phenyl)-5-(1′-(tetrahydro-2H-pyran-4-yl)-[1,4′-bipiperidin]-4-yl)-1H-benzo[d]imidazole], for which the pIC50 on human TLR9 is 6.28; at human TLR9 (setting [1]), 6.28; at human TLR8 it was < 4.30; at human TLR7 it was < 4.30.

Take `COCCN1CCC(N2CCC(c3ccc4c(nc(-c5ccc(S(C)(=O)=O)cc5)n4C)c3F)CC2)CC1` [Example 188, 4-fluoro-5-(1′-(2-methoxyethyl)-[1,4′-bipiperidin]-4-yl)-1-methyl-2-(4-(methylsulfonyl)phenyl)-1H-benzo[d]imidazole]: the pIC50 on human TLR9 is 6.36; at human TLR9 (setting [1]), 6.36; on human TLR8 it was < 4.30; at human TLR7, < 4.30.

For `Cn1c(-c2ccc(S(C)(=O)=O)cc2)nc2c(F)c(C3CCN(C4CC5CCC(C4)N5C4COC4)CC3)ccc21` (stereo not shown) [Example 195, 4-fluoro-1-methyl-2-(4-(methylsulfonyl)phenyl)-5-(1-(8-(oxetan-3-yl)-8-azabicyclo[3.2.1]octan-3-yl)piperidin-4-yl)-1H-benzo[d]imidazole], the pIC50 against human TLR9 was 6.31; at human TLR9 (setting [1]), 6.31; on human TLR8, < 4.30; at human TLR7, < 4.30.

As to `Cn1c(-c2ccc(S(C)(=O)=O)cc2)nc2c(F)c(C3CCN(C4CC5CCC(C4)N5C4COC4)CC3)ccc21` (stereo not shown) [Example 196, 4-fluoro-1-methyl-2-(4-(methylsulfonyl)phenyl)-5-(1-(8-(oxetan-3-yl)-8-azabicyclo[3.2.1]octan-3-yl)piperidin-4-yl)-1H-benzo[d]imidazole], the pIC50 is 6.24 on human TLR9, 6.24 on human TLR9 (setting [1]), < 4.30 on human TLR8 and < 4.30 on human TLR7.
